Test results as given in patent US9982242B2, “Protein complex capable of catalyzing asymmetric oxidation reaction and method for producing same” (SANYO FOODS CO., LTD., priority 2012, dated 2018).

tested on: CLPC; details: 1 mM

Row | SMILES | effect of additive on CLPC activity
1 | O=C(O)CN(CCN(CC(=O)O)CC(=O)O)CC(=O)O [EDTA] | activity was completely lost
2 | [Cl-].[Cl-].[Zn+2] [ZnCl2] | inhibitory activity was observed

same assay, conditions: additive 1.0 mM, CLPC 20 mg, rac-2 0.8 mM, […], 48 h

Row | SMILES | OP/% ee of (S)-2 with additive [% ee]
3 | [Ca+2].[Cl-].[Cl-] [CaCl2] | 97.7
4 | O=S(=O)([O-])[O-].[Cu+2] [CuSO4] | 86.2
5 | [Cl][Fe]([Cl])[Cl] [FeCl3] | 79.6
6 | O=S(=O)([O-])[O-].[Mg+2] [MgSO4] | 91.2
7 | [Cl][Mn][Cl] [MnCl2] | 80.4
8 | [Cl][Ni][Cl] [NiCl2] | 77.7
9 | [Cl-].[Cl-].[Zn+2] [ZnCl2] | 1.7
10 | c1cnc2c(c1)ccc1cccnc12 [o-phenanthroline] | 1.4
